This test has as its target T1, Inositol polyphosphate-5-phosphatase A (Homo sapiens, UniProt Q14642).
T1 sequence (Q14642 whole entry): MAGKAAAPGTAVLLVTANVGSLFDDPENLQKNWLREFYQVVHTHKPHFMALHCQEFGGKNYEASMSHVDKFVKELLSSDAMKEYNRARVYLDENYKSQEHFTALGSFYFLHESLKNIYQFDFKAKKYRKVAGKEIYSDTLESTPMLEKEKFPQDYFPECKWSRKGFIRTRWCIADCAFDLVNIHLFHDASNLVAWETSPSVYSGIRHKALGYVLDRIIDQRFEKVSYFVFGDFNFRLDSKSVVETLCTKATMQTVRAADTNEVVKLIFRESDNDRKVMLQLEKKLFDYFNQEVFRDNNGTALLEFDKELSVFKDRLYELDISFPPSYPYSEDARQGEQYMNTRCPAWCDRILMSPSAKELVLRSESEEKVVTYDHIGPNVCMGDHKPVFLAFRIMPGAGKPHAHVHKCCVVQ
Kind of test: The compound was evaluated for inhibition of Inositol-1,4,5-trisphosphate 5-phosphatase.

The compound `O=P(O)(O)OC1C(O)C(O)C(OP(O)(O)=S)C(OP(O)(O)=S)C1O` (stereo unspecified) came in with a Ki of 1300 nM.

As usually defined, the Ki is a measure of affinity in units of concentration, obtained from inhibition or displacement.
